Measurements: US11083197B2, “Herbicidal composition comprising chromone derivatives and a method for weed control” (INVESTIGACIONES BIOLÓGICAS EN AGROQUÍMICOS ROSARIO S.A., priority 2015, dated 2021)

Tests used:
[1] = system: crabgrass (D. sanguinalis), barnyardgrass (E. crus-galli) and velvetleaf (A. theophrasti); assay: Greenhouse postemergence spray, 4.0 kg ai/ha; assay type: in vivo
Experimental: Aqueous solution containing commercial standard of pure compound of Formula IV was prepared and sprayed on crabgrass (D. sanguinalis), barnyardgrass (E. crus-galli) and velvetleaf (A. theophrasti). Plants were sprayed at 2-3 true leaf stage (13-16-day-old plants). For better dissolution of compounds in water AGRIDEX (1% v/v) and acetone (1% v/v) were added to spray solutions. Final rate of compounds was 4.0 kg ai ha^−1. Plant height and dry weight were measured at 11 days after spray. Results were compared with the bio herbicide pelargonic acid at 4.0 kg ai ha^−1.

[2] = system: green alga Chlamydomonas reinhardtii; conditions: equimolar concentrations and equal UV-A doses; cited from earlier work

With `COc1c2ccoc2cc2oc(C)cc(=O)c12` [Formula IV, 4-methoxy-7-methyl-5H-furo[3,2-g]chromen-5-one] the “kind of postemergence herbicidal activity” value [1] was “by contact and non-selective”, the “height and biomass of sprayed weeds versus control plants” value ([1]; 11 days after spray) was “significantly smaller” and the “symptoms on treated plants” value ([1]; 11 days after treatment) was “necrotic lesions and some abnormally formed leaves”. The “phototoxicity and photomutagenicity compared with bergapten” value [2] was “much less phototoxic and photomutagenic than bergapten”.
